In patent US20250345390A1, “COMBINATION THERAPIES” (Gilead Sciences, Inc., priority 2024, published 2025):

Test system: HDV
Assay: HBV/HDV co-infected viral spread assay in primary human hepatocytes (PHH)
Format: cell-based, hepatitis D virus (HDV) in primary human hepatocytes
Settings: primary infection; lonafarnib 5 μM to 6.9 nM for 9 days; BLV 0.8 nM where present
Protocol: Cryopreserved PHH were thawed and cells were recovered by centrifugation at 100×g (Beckman Coulter, Allegra X-14R) through cryopreserved hepatocyte recovery medium (Thermo Fisher Scientific; CM7500) and plated in collagen coated 96-well plates (Thermo Fisher Scientific; CM1096) at a density of 70,000 live cells per well. Cells were plated in William's E medium (Thermo Fisher Scientific; A1217601) supplemented with 3.6% hepatocyte thawing and plating supplement (Thermo Fisher Scientific, A15563), 5% fetal bovine serum (Thermo Fisher Scientific; 16000-036), 1 μM dexamethasone (Thermo Fisher Scientific, A15563), and 0.2% Torpedo antibiotic mix (BioreclamationIVT; Z990008). […]
Vehicle and compound containing wells were normalized such that the final concentration of DMSO was 1.5% (v/v). The medium was collected and extracellular HBsAg was measured by an electrochemiluminescence assay (MSD) according to the manufacturer's instructions (Meso Scale Diagnostics, Rockville, MD). […] Levels of HDV RNA were calculated as fold change relative to DMSO treated sample using the 2-ΔΔCt method (Livak K J, Schmittgen T D. Analysis of relative gene expression data using real-time quantitative PCR and the 2(-Delta Delta C(T)) Method. Methods 2001).

In the case of NC(=O)N1CCC(CC(=O)N2CCC([C@H]3c4ncc(Br)cc4CCc4cc(Cl)cc(Br)c43)CC2)CC1 [lonafarnib, (R)-4-(2-(4-(3,10-dibromo-8-chloro-6,11-dihydro-5H-benzo[5,6]cyclohepta[1,2-b]pyridin-11-yl)piperidin-1-yl)-2-oxoethyl)piperidine-1-carboxamide], the “intracellular HDV RNA (qRT-PCR, fold change relative to DMSO)” value is reported as “induced dose-dependent intracellular accumulation of HDV RNA”.
